Measured values from the NIST ThermoML archive (doi:10.1016/j.jct.2008.01.025).
Numbers after ± are expanded uncertainties.

Tests used:
[1] = 298.15 K, 101.33 kPa, Liquid
[2] = refractive index (Na D-line) (dimensionless); details: 298.15 K; 101.33 kPa; Liquid; Standard Abbe refractometry

refractive index [2]	mass density [1]	SMILES	mass density ([1]; Vibrating tube method)
1.42011 ± 0.0004	745.32 ± 0.91 kg/m3	CCCCCCCCCCCC [dodecane]	
1.38517 ± 0.00036	679.466 ± 0.66 kg/m3	CCCCCCC [heptane]	
1.43232 ± 0.0004	771.15 ± 0.85 kg/m3	CCCCCCCCCCCCCCCC [hexadecane]	
1.52581 ± 0.00036	1058.5 ± 0.28 kg/m3	c1ccsc1 [thiophene]	

SMILES	refractive index [2]	mass density [1]	mass density ([1]; Vibrating tube method)
CCCCCCCC[n+]1ccn(C)c1.F[B-](F)(F)F [1-methyl-3-octylimidazolium tetrafluoroborate]	1.43329 ± 0.00069		1104.42 ± 2.3 kg/m3
